Data reported in paper PMC12544700, “Identification of a Small Secretoneurin Derivative That Inhibits CaMKIIδ Activity” (Journal of Cellular and Molecular Medicine, 2025).
Peptide text beside a SMILES is read from it. * marks the point of attachment. Biotin = O=C1N[C@H]2[C@H](CS[C@H]2CCCCC(=O)*)N1; Ahx = NCCCCCC(=O)O

Tests used:
[1] = tested on: adult rat cardiomyocytes; experiment: Ca2+ imaging (sparks, waves, transients) with ISO stimulation; assay type: cell-based; conditions: ISO 100 nM
Method: Male Wistar rats (Janvier, France) weighing ~300 g were sedated in an anaesthesia chamber by inhalation of 5% isoflurane and 95% O2. The heart was excised under deep surgical anaesthesia, cannulated, and then retrogradely perfused through the aorta on a modified Langendorff setup with cell isolation solution containing (in mM, pH adjusted to 7.4, 37°C): NaCl 130, Hepes 25, D‐glucose 22, KCl 5.4, MgCl2 0.5, NaH2PO4 0.4, and a flow rate of 4 mL/min. After the heart was cleaned of blood, collagenase type II (2 mg/mL, Worthington Biochemical Corp, Lakewood, NJ, USA) was added to the perfusate, and the hearts digested for ~10 min. Following digestion, hearts were cut down, and the left ventricle dissected into pieces, which were transferred into 10 mL cell isolation solution with 250 μL BSA (40 mg/mL) and ~0.2 mg Deoxyribonuclease I (Worthington Biochemical Corporation, Lakewood, NJ, USA). After light agitation (~2 min), the supernatant was filtered (200 μm nylon mesh), and isolated cardiomyocytes were allowed to sediment by gravity. The cardiomyocytes were then washed in isolation buffer containing 1 mg/mL BSA, with a stepwise increase in Ca^2+ concentration up to 0.2 mM. Animal experiments were approved by the Norwegian Research Authority (FOTS ID: 30114). Adult rat cardiomyocytes were treated with 10 μM of SN, SN‐db‐short or scram in 0.2 mM Ca^2+ cell isolation solution for 1 h. These loading concentrations are higher than those used in our previous studies of SN, where we had sought to examine endogenous, circulating levels, rather than potentially therapeutic levels applied exogenously. […] Ca^2+ transients were recorded in linescan mode using a Zeiss LSM 7 Live confocal microscope (Jena, Germany), at a frame rate of 1.5 ms and a pixel size of 0.16 μm. These recordings were normalised to resting fluorescence values to create F/F0 images and assess Ca^2+ transient amplitude. The rate of Ca^2+ transient decline was assessed by measurements of the decay time constant (Tau). Spontaneous sparks and waves were measured during a 9 s pause in the electrical excitation. […]

[2] = molecular target: T1, recombinant CaM (Homo sapiens, UniProt P0DP23); experiment: Calmodulin pull-down with peptides synthesised on cellulose membrane; assay type: binding; conditions: peptide on cellulose membrane; 1 μg recombinant CaM, 1 mM CaCl2, overnight 4°C; immunoblot; Figure 3B
T1 construct: purchased Sigma Merck C4874
Method: To test for calmodulin (CaM) binding, recombinant CaM was pulled down after incubation with SN‐db‐short or a peptide representing the CaM binding site in CaMKII ([…], positive control). SN‐db‐short and the CaM‐binding peptide were synthesised in triplicates onto a cellulose membrane by a Multipep automated peptide synthesiser (CEM Corporation, Matthews, NC, USA). The specific spots of the membrane corresponding to SN‐db‐short or the positive control peptide were cut and placed into separate tubes. The membrane pieces were first rehydrated in 100% methanol and subsequently incubated with 1 μg of recombinant CaM (C4874, Sigma Merck) in CaMKII binding buffer supplemented with CaCl2 (50 mM Hepes, 150 mM NaCl, 15 mM MgCl2, 1 mM CaCl2, 0.1% Triton X‐100, 1% BSA) overnight at 4°C with rotation. […]
Lysates and immunoprecipitates were separated on 12% or 4%–15% Criterion TGX precast gels (5671044 and 5671084, Biorad, Hercules, CA, USA), blotted onto PVDF membranes (1704157 by Biorad or 03010040001 by Sigma Merck) and reversibly stained with Revert 700 Total Protein Stain (Li‐COR Biosciences, Lincoln, NE, USA). […] Blots were developed using ECL (RPN2236, GE Healthcare, Chicago, IL, USA) after four washing steps of 10 min in TBS‐t and the chemiluminescence signals were detected by Azure Biosystems 600 (Dublin, CA, USA). […] ImageJ [13] was used to quantify the blots.

CaM binding (pull-down) [2]: no CaM was detected
SMILES: CC(C)C[C@H](NC(=O)[C@H](CCC(=O)O)NC(=O)[C@H](CCC(N)=O)NC(=O)[C@H](Cc1ccccc1)NC(=O)[C@H](Cc1ccccc1)NC(=O)[C@H](CO)NC(=O)[C@H](CCC(=O)O)NC(=O)[C@H](Cc1ccccc1)NC(=O)[C@@H](NC(=O)[C@H](C)NC(=O)[C@H](CC(C)C)NC(=O)[C@H](CO)NC(=O)[C@H](CCC(N)=O)NC(=O)[C@@H]1CCCN1C(=O)[C@@H](NC(=O)[C@H](Cc1ccc(O)cc1)NC(=O)[C@H](CCC(N)=O)NC(=O)[C@H](CCC(=O)O)NC(=O)CCCCCNC(=O)CCCC[C@@H]1SC[C@@H]2NC(=O)N[C@@H]21)[C@@H](C)O)[C@@H](C)O)C(=O)NCC(=O)N[C@@H](CCCCN)C(=O)O [SN‐db‐short] ({Biotin-Ahx}-EQYTPQSLATFESFFQELGK-OH; N-terminus and C-terminus assumed)
ISO-induced increase of Ca2+ transient amplitude and acceleration of Ca2+ transient decay ([1]; 10 μM peptide 1 h, field stimulation 1 Hz, Figure 5B–D, n = 22–73, 3–6 rats): significantly attenuated
Ca2+ spark incidence under ISO ([1]; 10 μM peptide 1 h pre-treatment, 9 s pause after 1 Hz pacing, Figure 4D, n = 35–85 cells from 3 to 6 rats): strong reduction
Ca2+ wave incidence under ISO ([1]; 10 μM peptide 1 h pre-treatment, 9 s pause after 1 Hz pacing, Figure 4E, n = 35–66 cells from 3 to 5 rats): strong reduction
